Converted amounts (≈) assume the structure as drawn.
Details: buffer; pH 7.4; 200.0 µM

| Compound | solubility kinetic |
| --- | --- |
| Cn1ccnc1COc1ccc(C=O)cc1 | > 32.4 µg/mL |
| N#Cc1c(N2CCN(c3ccc(F)cc3)CC2)nc(N)c2c(N)nc3c(c12)CC(=O)N3C1CC1 | 0.8 µg/mL (≈ 1.74 µM) |
| Cc1ccccc1NC(=O)/C(C#N)=C/c1ccc[nH]1 | 2.9 µg/mL (≈ 11.5 µM) |
| CC(=O)c1c(-c2ccc(Cl)cc2Cl)noc1C | 17.5 µg/mL (≈ 64.8 µM) |
| Cc1cccnc1NC1CCCCC1 | 8.1 µg/mL (≈ 42.6 µM) |
| O=C(NCCCc1nc2ccccc2[nH]1)c1cccs1 | 37.4 µg/mL (≈ 131 µM) |
| Cc1cc(C)cc(N=C2NC(=O)CS2)c1 | > 33 µg/mL |
| CCn1ccc(C(=O)NCCCN2CCCC2=O)n1 | > 39.6 µg/mL |
| CC(C)(C)S(=O)(=O)c1cnc(-c2ccc(Cl)cc2)nc1N | < 0.2 µg/mL |
| O=S(=O)(NCc1ccc2c(c1)OCO2)c1ccc(F)c(F)c1 | 47.7 µg/mL (≈ 146 µM) |
| Cc1sc(N)nc1-c1c(C)n(C)c2ccccc12 | 37.6 µg/mL (≈ 146 µM) |
| CCCCCC1CC(CC(=O)Nc2ccc([N+](=O)[O-])cc2)OC1=O (centres undefined) | 0.5 µg/mL (≈ 1.5 µM) |
| O=C(CNC(=O)c1ccco1)Nc1ccc(OC(F)F)cc1 | > 46.5 µg/mL |
| CC(=O)C1=C(O)C(=O)N(C)C1c1ccccc1[N+](=O)[O-] (centres undefined) | > 41.4 µg/mL |
| NC(=O)COC(=O)c1cccc(S(=O)(=O)N2CCCCC2)c1 | > 49 µg/mL |
| Cc1ccc(N2C(=O)N(C(C)C)C(C)(C)CC2(C)O)cc1 (centres undefined) | > 43.6 µg/mL |
| O=C(Cc1ccc(F)cc1)N1CCOCC1 | > 33.5 µg/mL |
| CCOC(=O)COc1ccccc1/C=C1\NC(=O)NC1=O | 33 µg/mL (≈ 114 µM) |
| Brc1ccc(CN2CCN(c3ccccc3)CC2)o1 | 22.5 µg/mL (≈ 70 µM) |
| CNC(=O)CSc1nc2ccccc2c(=O)n1CCc1ccccc1 | < 0.3 µg/mL |
| Cc1c(C(=O)O)cc(-c2ccccc2)n1Cc1ccccc1 | > 43.7 µg/mL |
| O=C(NCCNc1ccc([N+](=O)[O-])cc1Cl)c1ccccc1F | 1.8 µg/mL (≈ 5.33 µM) |
| COC(=O)C1CCN(C(=O)c2ccc(OC)c(S(=O)(=O)N3CCCc4ccccc43)c2)CC1 | > 70.9 µg/mL |
| CSc1ncc(CN2CCN(CCC(C)C)C(CCO)C2)cn1 (centres undefined) | 41.7 µg/mL (≈ 123 µM) |

| Compound | solubility kinetic |
| --- | --- |
| CN1CCN(S(=O)(=O)c2csc(C(N)=O)c2)CC1 | > 43.4 µg/mL |
| CCCCC(=O)Nc1cc(OC)c(NC(=S)NC)cc1OC | > 48.8 µg/mL |
| O=C(CSc1nnc(C2CC2)n1C1CC1)c1ccccc1F | > 47.6 µg/mL |
| CCOc1ccc(Cl)cc1CNCCCSc1ncccn1 | 43 µg/mL (≈ 127 µM) |
| CCN1C(=O)c2ccccc2Sc2ccc(C(=O)NC(C)C)cc21 | 47.9 µg/mL (≈ 141 µM) |
| CC(NC(=O)CCCc1c[nH]c2ccccc12)c1ccc(F)cc1 (centres undefined) | 41.5 µg/mL (≈ 128 µM) |
| Cc1nc(N)c(C#N)c(-c2cccnc2)c1-c1ccccc1 | 0.6 µg/mL (≈ 2.1 µM) |
| CCCCOc1ccc(CSCCN)cc1Cl.Cl | > 46.5 µg/mL |
| CN(Cc1ccccc1)Cc1c(O)ccc2ccccc12 | 26.6 µg/mL (≈ 95.9 µM) |
| Cc1ccc(-c2nc3ccccc3[nH]2)cn1 | 29.5 µg/mL (≈ 141 µM) |
| Cc1cc(C)c2cc(C(=O)N3CCC(N4CCCCC4)CC3)[nH]c2c1 | > 50.9 µg/mL |
| O=C(Nc1cc(C(F)(F)F)ccc1N1CCOCC1)c1ccncc1 | > 52.7 µg/mL |
| CCOC(=O)N1CCN(C/C(Cl)=C/c2ccccc2)CC1 | 29.8 µg/mL (≈ 96.5 µM) |
| COCCN(C(=O)CSc1ccc2c(c1)OCCO2)c1c(N)n(CC(C)C)c(=O)[nH]c1=O | > 69.7 µg/mL |
| OC1=C(O)c2nc3cc(C(F)(F)F)ccc3nc21 | > 38.1 µg/mL |
| CCN(CC)S(=O)(=O)c1cccc(NC2=NCCCCC2)c1 | 46.8 µg/mL (≈ 145 µM) |
| COc1ccc(OC)c(S(=O)(=O)N2CCc3ccccc3C2)c1 | 22.1 µg/mL (≈ 66.3 µM) |
| CN1C(=O)C(=Cc2ccc(N3CCCCCC3)cc2)C(=O)N(C)C1=O | 7 µg/mL (≈ 20.5 µM) |
| CCCCn1c(N)c(N(CC(C)C)C(=O)c2cnccn2)c(=O)[nH]c1=O | 53.9 µg/mL (≈ 150 µM) |
| NC(=O)COC(=O)c1ccc2noc(-c3ccccc3)c2c1 | 26.1 µg/mL (≈ 88.1 µM) |
| COc1ccc2cc(S(=O)(=O)NCc3cccnc3)ccc2c1 | 13.8 µg/mL (≈ 42 µM) |
| COc1ccc(C(=O)NCCc2c[nH]c3ccccc23)cc1OC | 32 µg/mL (≈ 98.6 µM) |
| Cc1ccc(Cl)cc1NC(=O)C1C2CCC(O2)C1C(=O)O (centres undefined) | > 46.5 µg/mL |
| CCOc1ccccc1C(=O)OCC(=O)Nc1cccc(S(=O)(=O)N2CCCC2)c1 | 19.2 µg/mL (≈ 44.4 µM) |

| Compound | solubility kinetic |
| --- | --- |
| Cc1nc(N)nc(N)c1CCCc1ccc(Cl)c(Cl)c1 | > 46.7 µg/mL |
| Cc1ccc(NC(=O)CSc2nc3ccccc3c(=O)[nH]2)cc1[N+](=O)[O-] | 3.6 µg/mL (≈ 9.72 µM) |
| Cc1onc(C(=O)NCCc2ccccc2)c1[N+](=O)[O-] | > 41.3 µg/mL |
| COC(=O)CN1C(=O)NC2(CCCc3ccccc32)C1=O (centres undefined) | > 43.2 µg/mL |
| CNC(=O)N(C)c1ccc(C(O)(C(=O)OC)C(F)(F)F)cc1 (centres undefined) | 46.7 µg/mL (≈ 146 µM) |
| Cc1ccc(NC(=S)Nc2ccccn2)cc1C | 0.4 µg/mL (≈ 1.55 µM) |
| CCOc1ncccc1C(=O)Nc1ccc(C)cn1 | 31.8 µg/mL (≈ 124 µM) |
| CC(=O)Nc1nnc(S(N)(=O)=O)s1 | > 33.3 µg/mL |
| O=C(Nc1cccc([N+](=O)[O-])c1)C1C2/C=C\CCCCC21 (centres undefined) | < 0.3 µg/mL |
| Cc1cc(C2CC(=O)Nc3ccccc3S2)c(C)s1 (centres undefined) | < 0.6 µg/mL |
| Fc1ccccc1-c1nc2ncccc2o1 | 31 µg/mL (≈ 145 µM) |
| O=C(COC(=O)/C=C/c1ccc(S(=O)(=O)N2CCOCC2)cc1)Nc1ccccc1F | 12.5 µg/mL (≈ 27.9 µM) |
| COc1cccc(Cn2c(=O)c3[nH]cnc3n(-c3ccccc3C)c2=O)c1 | > 54.4 µg/mL |
| CCN(CC(=O)NCc1ccc(F)cc1)C(=O)c1ccc(C)o1 | > 47.8 µg/mL |
| CN(C(=O)CCc1nc2ccccc2c(=O)[nH]1)C1CCS(=O)(=O)C1 (centres undefined) | > 52.4 µg/mL |
| CCC(CO)NC(=O)c1ccccc1C(F)(F)F (centres undefined) | 28 µg/mL (≈ 107 µM) |
| O=C1CC(C2CCCO2)C(=O)N1c1ccc(Cl)c(Cl)c1 (centres undefined) | > 47.1 µg/mL |
| COC(=O)c1cccc(NC(=O)CN2C(=O)c3ccccc3C2=O)c1 | 21.3 µg/mL (≈ 63 µM) |
| COCC(=O)OC/C(O)=C(\C#N)c1nc2ccccc2[nH]1 | > 43.1 µg/mL |
| CCOC(=O)N1CCc2c(sc3ncn(C)c(=O)c23)C1 | 36.7 µg/mL (≈ 125 µM) |
| COc1ccc(NC(=O)/C(C#N)=C/c2cccnc2)c(OC)c1 | 24.8 µg/mL (≈ 80.2 µM) |
| CC(C)c1nc2sc3c(SCC(N)=O)ncnc3c2c2c1CCC2 | 0.5 µg/mL (≈ 1.39 µM) |
| O=C1CNC(=S)N1CCc1ccccc1Cl | > 38.2 µg/mL |
| CC(C)c1ccc(CNC(=O)C(=O)NCC2CCCO2)cc1 (centres undefined) | 28.5 µg/mL (≈ 93.6 µM) |

| Compound | solubility kinetic |
| --- | --- |
| NC(=O)C1CC(=O)N(c2ccc(OCc3ccc([N+](=O)[O-])cc3)cc2)C1 (centres undefined) | 20.4 µg/mL (≈ 57.4 µM) |
| CN1CCCN(C(=O)c2cc3c(s2)CCCC3)CC1 | 39.7 µg/mL (≈ 143 µM) |
| CCCC(=O)Nc1ccc(-c2cn3cccnc3n2)cc1 | > 42 µg/mL |
| COc1ccc2o/c(=N\O)c(C(=O)Nc3ccc(C)cc3)cc2c1 | 11.7 µg/mL (≈ 36.1 µM) |
| C=CCOc1nc2c(c(=O)n(C)c(=O)n2C)n1Cc1ccccc1 | 8.2 µg/mL (≈ 25.1 µM) |
| CC1CCc2c(sc3ncnc(SCC(=O)N(C)C4CCS(=O)(=O)C4)c23)C1 (centres undefined) | 3.3 µg/mL (≈ 7.75 µM) |
| Cc1cc(C)c(NC(=S)NCCCSC2CCCCC2)c(C)c1 | 6.1 µg/mL (≈ 17.4 µM) |
| O=c1oc(-c2ccco2)nc2sc3c(c12)CCCCC3 | < 0.6 µg/mL |
| CCNC(=S)Nc1ccc(N2CCCCC2)cc1 | > 39.5 µg/mL |
| O=C(NCC1CCCO1)c1cncc(Br)c1 (centres undefined) | > 42.8 µg/mL |
| N#Cc1ccc(COc2cccnc2[N+](=O)[O-])cc1 | 6.3 µg/mL (≈ 24.7 µM) |
| CN(C)C(=O)Oc1ccc2c(c1)O/C(=C\c1ccccc1)C2=O | 0.8 µg/mL (≈ 2.59 µM) |
| CC1CCCCN1S(=O)(=O)c1cccc2nonc12 (centres undefined) | 39.6 µg/mL (≈ 141 µM) |
| Brc1ccc(CN2CCCCCC2)cc1 | 12.5 µg/mL (≈ 46.6 µM) |
| COc1ccc(NC(=O)Nc2cc(F)ccc2C)cc1 | 1.2 µg/mL (≈ 4.37 µM) |
| O=C(COC(=O)c1cccc(O)c1)Nc1ccc(OC(F)F)cc1 | 46.2 µg/mL (≈ 137 µM) |
| CN(C(=O)COC(=O)c1ccc(S(=O)(=O)N2CCOCC2)cc1)c1ccccc1 | 15.8 µg/mL (≈ 37.8 µM) |
| CCOC(=O)C1=C(C)NC(C)=C(C(=O)OCC)C1c1ccc(C)o1 | 1.8 µg/mL (≈ 5.4 µM) |
| CCCOc1ccc(C2=CSC3=NCCN23)cc1[N+](=O)[O-] | > 45.8 µg/mL |
| Cc1cnc(NC(=O)c2ccc(Cl)nc2)s1 | 6.6 µg/mL (≈ 26 µM) |
| COc1ccccc1NC(=O)CCN1CCN(C)CC1 | 38.6 µg/mL (≈ 139 µM) |
| CC1(N(O)/C=C2\C=CC=CC2=O)CCCCC1=O (centres undefined) | > 37.1 µg/mL |
| O=C(c1cccc(S(=O)(=O)N2CCc3ccccc32)c1)N1CCOCC1 | 54.8 µg/mL (≈ 147 µM) |
| CCN(CC(=O)Nc1cc(Cl)ccc1C)C(=O)CC1CCCC1 | > 50.5 µg/mL |

| Compound | solubility kinetic |
| --- | --- |
| CC(=O)Nc1ccc(S(=O)(=O)Nc2ccc3c(c2)OCO3)cc1 | > 50.2 µg/mL |
| Cc1cc(C(=O)NCc2csc(-c3ccccc3)n2)no1 | > 44.9 µg/mL |
| CCN(CCO)c1ccc(N=Cc2c(O)n(C)c(=S)[nH]c2=O)cc1 | 3.2 µg/mL (≈ 9.18 µM) |
| O=C(NNC(=S)NC1CC2C=CC1C2)c1cccnc1 (centres undefined) | > 43.3 µg/mL |
| CS(=O)(=O)Nc1ccc(C(=O)Nc2ccc3c(c2)OCO3)cc1 | 6.2 µg/mL (≈ 18.5 µM) |
| COc1ccc(C)cc1C(=O)CCC(=O)NC1CCCCC1 | 21.2 µg/mL (≈ 69.9 µM) |
| COc1ccccc1N1CCN(C(=O)c2cc3cc(F)ccc3[nH]2)CC1 | 0.7 µg/mL (≈ 1.98 µM) |
| Nc1cc(C(=O)OCC(=O)NCCC2=CCCCC2)ccc1Cl | 9.4 µg/mL (≈ 27.9 µM) |
| Cc1ccc(CNC(=O)c2c(-c3ccccc3Cl)noc2C)cc1 | 42.6 µg/mL (≈ 125 µM) |
| CCOC(=O)c1nn(-c2ccc3c(c2)OCCO3)cc1O | > 43.5 µg/mL |
| FC(F)Sc1nc2ccccc2[nH]1 | > 30 µg/mL |
| COc1ccc(CNC(=O)c2cc(=O)c3c(C)cc(C)cc3o2)cc1 | < 0.7 µg/mL |
| CCC(=O)Nc1ccc2c(c1)nc(CN1CCCCC1)n2C | > 45.1 µg/mL |
| CSc1ccc(/C=C/C(=O)N2CCCN(C)CC2)cc1.Cl | 44.1 µg/mL |
| CCCNC(=S)N1CCC(C(=O)c2ccc(F)cc2)CC1 | > 46.3 µg/mL |
| NS(=O)(=O)c1ccc(CNC(=O)Cc2ccccc2[N+](=O)[O-])cc1 | 50.1 µg/mL (≈ 143 µM) |
| FC(F)(F)c1ccnc(NCc2ccc(Cl)cc2)n1 | 4.3 µg/mL (≈ 14.9 µM) |
| COc1ccc(-c2csc(-c3[nH]cnc3N)n2)cc1 | 18.1 µg/mL (≈ 66.5 µM) |
| O=[N+]([O-])c1ccc(/C=C/c2ccc3cccc(O)c3n2)cc1 | < 0.3 µg/mL |
| O=C(CSc1ncccn1)NCc1cccc(Cl)c1 | > 44.1 µg/mL |
| COc1ccc(NC(=O)CCC(=O)NCc2ccco2)c([N+](=O)[O-])c1 | > 52.1 µg/mL |
| COc1ccccc1CNc1nc(C)c(C(C)=O)s1 | 12.1 µg/mL (≈ 43.8 µM) |
| CCOc1ccc2nc(N(CCN(C)C)C(=O)/C=C/c3cccs3)sc2c1.Cl | < 0.3 µg/mL |

Source: PubChem BioAssay AID1996
